Broadly, the IC50 is the concentration that gives 50% inhibition.

This assay relates to VEEV TC-83 infected cells, viral CPE inhibition. The experiment in a line: Cell based counter screen, viral CPE inhibition, VEEV strain KU V3526 (AID 651884).
In the case of `COc1ccc(NC(=O)c2cc([N+](=O)[O-])ccc2N=C2CN(C)CCN2C)cc1`, the IC50 was 17 nM. With `CCN1CCN(Cc2nc3ccc([N+](=O)[O-])cc3c(=O)n2-c2ccccc2F)CC1`, the concentration for half-maximal inhibition (IC50) is 325 nM.

Consider `CCN1CCN(C)CC1=Nc1ccc([N+](=O)[O-])cc1C(=O)Nc1ccccc1`, for which the IC50 was 20 nM. For the compound `CN1CCN(C)C(=Nc2ccc([N+](=O)[O-])cc2C(=O)Nc2ccccc2)C1`, the IC50 was 19.4 nM.

(Values after PubChem BioAssay AID651884 (Southern Research Specialized Biocontainment Screening …, 2012).)
